Results reported in patent US20260070902A1, “SULFONYL DERIVATIVES AS CCR6 INHIBITORS” (Hoffmann-La Roche Inc., priority 2022, published 2026).

How the values were obtained:
Format in all cases: cell-based
human CCR6 [1] = molecular target: T1, human CCR6 (Homo sapiens, UniProt P51684); assay: CHO-K1 CCR6 chemotaxis assay towards CCL20; conditions: relative -Log IC50; CHO-K1 cells overexpressing human CCR6; migration towards 100 ng/ml CCL20; 4 h
T1 sequence (P51684 1-374): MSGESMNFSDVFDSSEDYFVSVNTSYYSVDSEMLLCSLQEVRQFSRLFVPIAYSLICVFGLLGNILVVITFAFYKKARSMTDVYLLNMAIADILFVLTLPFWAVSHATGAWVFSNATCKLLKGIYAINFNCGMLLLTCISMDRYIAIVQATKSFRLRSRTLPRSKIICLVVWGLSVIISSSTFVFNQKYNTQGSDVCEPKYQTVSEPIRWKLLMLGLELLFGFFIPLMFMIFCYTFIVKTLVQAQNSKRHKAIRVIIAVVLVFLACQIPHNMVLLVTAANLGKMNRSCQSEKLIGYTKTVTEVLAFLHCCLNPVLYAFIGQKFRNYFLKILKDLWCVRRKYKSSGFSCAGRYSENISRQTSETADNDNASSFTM
How it was run: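 Human CCR6-overexpressing CHO-K1 cells (2*10^6 cells/ml) were preincubated 30 min at 37 °C with compound (0.2% DMSO), then allowed to migrate 4 h through 8 µm Transwell pores toward 100 ng/ml CCL20. Migrated cells were counted by CellTiter Glo. −Log IC50 came from four-parameter fits normalised to DMSO without/with CCL20.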

Human CD4+ T cells = assay: CD4+ T cells chemotaxis assay towards CCL20; conditions: Homo sapiens, CD4+ T cell, 3 h, relative -Log IC50, human CD4+ T cells stimulated with anti-CD3 and anti-CD28, migration towards 150 ng/ml CCL20
Source text: CD4+ T Cells Chemotaxis Assay Towards CCL20
Human CD4+ T cells were isolated from buffy coats of healthy donors using a CD4+ T Cell Isolation Kit (Miltenyi Biotec130-096-533). Isolated T cells were stimulated overnight with anti-CD3 and anti-CD28 antibodies (Biolegend 300314/302934) in growth medium (RPMI1640, 10% heat-inactivated FBS, 1× pen/strep (Gibco 15140)). For the chemotaxis assay, Corning Transwell plates were used with a pore size of 5 m (Corning 3388). T cells were counted and diluted to 6*10^6 cells/ml in chemotaxis medium (RPMI1640, 1% BSA, pen/strep). Compounds were four-fold serially diluted in DMSO. Further dilutions were made in chemotaxis medium. Cells were incubated with test compounds for 30 min at 37° C. prior to initiation of the assay (3*10^6 cells/ml). Final DMSO concentration in the assay was 0.2%. Wells of the Transwell plates were filled with 200 μl chemotaxis medium containing 150 ng/ml CCL20 (R&D systems 360-MP). 50 μl of the cell/compound suspension was added to the inserts of the Transwell plates (150,000 cells/insert). The Transwell plates were placed in an incubator at 37° C., 5% CO2 for 3 h. After 3 h, the number of migrated cells was quantified using CellTiter Glo (Promega). Percentage inhibition values were calculated based on the low and high signal obtained with 0.2% DMSO in chemotaxis medium without and with CCL20, respectively. The relative −Log IC50 was determined with GraphPad Prism 9 using a four-parameter dose-response model.

human CCR6 [2] = molecular target: T1, human CCR6; assay: Human CCR6-CRE reporter assay; set-up: The second construct contained the open reading frame of human CCR6 in the pUNO1 backbone; host or cells: 293FT cells; conditions: relative -Log IC50; 293FT cells transfected with human CCR6 and CRE-luciferase reporter; 6 μM Forskolin, 6 nM CCL20; 5 h
How it was run: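 293FT cells transiently co-transfected with human CCR6 and a CRE-luc2P reporter, used 48 h later. Compounds incubated with cells in medium containing 6 μM Forskolin and 6 nM CCL20 (assay-medium levels), 0.1% DMSO final, 5 h at 37° C; luminescence read, relative −Log IC50 from four-parameter fit.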

Row | SMILES | IC50 (human CCR6 [1]) | IC50 (Human CD4+ T cells) | IC50 (human CCR6 [2])
1 | N#Cc1cnc2ccc(-c3ccc(S(=N)(=O)[C@H]4CC[C@H](Nc5ccc(S(F)(F)(F)(F)F)cc5)CC4)cc3)cn12 (stereo partly drawn) [Example 90, 6-(4-{[trans-4-{[4-(pentafluoro-λ^6-sulfanyl)phenyl]Amino}cyclohexyl]sulfonimidoyl}phenyl)imidazo[1,2-a]pyridine-3-carbonitrile] | 63.1 nM | 25.1 nM | 158 nM
2 | NC(=O)c1nnc2ccc(-c3ccc(S(=O)(=O)N4CCC(Nc5ccc(S(F)(F)(F)(F)F)cc5)CC4)cc3)cn12 [Example 26, 6-{4-[(4-{[4-(pentafluoro-λ^6-sulfanyl)phenyl]Amino}piperidin-1-yl)sulfonyl]phenyl}-[1,2,4]triazolo[4,3-a]pyridine-3-carboxamide] | 100 nM | 15.8 nM | 50.1 nM
3 | O=S(=O)(c1ccc(-c2ccc3nnc(C(F)F)n3c2)cc1)[C@H]1CC[C@H](Nc2ccc(S(F)(F)(F)(F)F)cc2)CC1 [Example 176, 4-(pentafluoro-λ^6-sulfanyl)-N-[trans-4-{4-[3-(difluoromethyl)-[1,2,4]triazolo[4,3-a]pyridin-6-yl]benzenesulfonyl}cyclohexyl]aniline] | 10 nM | 1.58 nM | 126 nM
4 | CC(C)c1nnc2cnc(-c3ccc(S(=O)(=O)[C@H]4CC[C@H](Nc5ccc(S(F)(F)(F)(F)F)cc5)CC4)cc3)cn12 [Example 51, 4-(pentafluoro-λ^6-sulfanyl)-N-[trans-4-{4-[3-(propan-2-yl)-[1,2,4]triazolo[4,3-a]pyrazin-6-yl]benzenesulfonyl}cyclohexyl]aniline] | 7.94 nM | 2 nM | 63.1 nM
5 | CC(C)c1nnc2cnc(-c3ccc(S(=N)(=O)[C@H]4CC[C@H](Nc5ccc(S(F)(F)(F)(F)F)cc5)CC4)cc3)cn12 (stereo partly drawn) [Example 162, {4-[3-(propan-2-yl)-[1,2,4]triazolo[4,3-a]pyrazin-6-yl]phenyl}[trans-4-{[4-(pentafluoro-λ^6-sulfanyl)phenyl]amino}cyclohexyl](imino)-λ^6-sulfanone] | 63.1 nM | 79.4 nM | 100 nM
6 | O=S(=O)(c1ccc(-c2ccc3nccn3c2)cc1)[C@H]1CC[C@H](Nc2ccc(S(F)(F)(F)(F)F)cn2)CC1 [Example 180, 5-(pentafluoro-λ^6-sulfanyl)-N-[trans-4-(4-{imidazo[1,2-a]pyridin-6-yl}benzenesulfonyl)cyclohexyl]pyridin-2-amine] | 25.1 nM | 7.94 nM | 100 nM
7 | CC(C)c1nnc2ccc(-c3ccc(S(=O)(=O)[C@H]4CC[C@H](Nc5ccc(S(F)(F)(F)(F)F)cc5)CC4)cc3)nn12 [Example 50, 4-(pentafluoro-λ^6-sulfanyl)-N-[trans-4-{4-[3-(propan-2-yl)-[1,2,4]triazolo[4,3-b]pyridazin-6-yl]benzenesulfonyl}cyclohexyl]aniline] | 100 nM | 25.1 nM | 126 nM
8 | Cc1cnc2ccc(-c3ccc(S(=N)(=O)[C@H]4CC[C@H](Nc5ccc(S(F)(F)(F)(F)F)cc5)CC4)cc3)cn12 (stereo partly drawn) [Example 89, (4-{3-methylimidazo[1,2-a]pyridin-6-yl}phenyl)[trans-4-{[4-(pentafluoro-λ^6-sulfanyl)phenyl]Amino}cyclohexyl](imino)-λ^6-sulfanone] | 79.4 nM | 39.8 nM | 158 nM
9 | Cc1nnc2ccc(-c3ccc(S(=O)(=O)N4CCC(Nc5ccc(S(F)(F)(F)(F)F)cc5)CC4)cc3)cn12 [Example 27, 1-(4-{3-methyl-[1,2,4]triazolo[4,3-a]pyridin-6-yl}benzenesulfonyl)-N-[4-(pentafluoro-λ^6-sulfanyl)phenyl]piperidin-4-amine] | 63.1 nM | 5.01 nM | 63.1 nM
10 | Cc1[nH]nc2ccc(-c3ccc(S(=O)(=O)[C@H]4CC[C@H](Nc5ccc(S(F)(F)(F)(F)F)cc5)CC4)cc3)cc12 [Example 6, 4-(pentafluoro-λ^6-sulfanyl)-N-[trans-4-[4-(3-methyl-2H-indazol-5-yl)benzenesulfonyl]cyclohexyl]aniline] | 25.1 nM | 0.631 nM | 39.8 nM
11 | CC(C)c1nnc2ccc(-c3ccc(S(=O)(=O)[C@H]4CC[C@H](Nc5ccc(S(F)(F)(F)(F)F)cn5)CC4)cc3)cn12 [Example 178, 5-(pentafluoro-λ^6-sulfanyl)-N-[trans-4-{4-[3-(propan-2-yl)-[1,2,4]triazolo[4,3-a]pyridin-6-yl]benzenesulfonyl}cyclohexyl]pyridin-2-amine] | 10 nM | 0.794 nM | 63.1 nM
12 | Cc1nnc2ccc(-c3ccc(S(=O)(=O)[C@H]4CC[C@H](Nc5ccc(S(F)(F)(F)(F)F)cc5)CC4)cc3)cn12 [Example 11, 4-(pentafluoro-λ^6-sulfanyl)-N-[trans-4-(4-{3-methyl-[1,2,4]triazolo[4,3-a]pyridin-6-yl}benzenesulfonyl)cyclohexyl]aniline] | 25.1 nM | 3.98 nM | 100 nM
13 | Cc1n[nH]c2ccc(-c3ccc(S(=N)(=O)[C@H]4CC[C@H](Nc5ccc(S(F)(F)(F)(F)F)cc5)CC4)cc3)cc12 (stereo partly drawn) [Example 86, [4-(3-methyl-1H-indazol-5-yl)phenyl][trans-4-{[4-(pentafluoro-λ^6-sulfanyl)phenyl]Amino}cyclohexyl](imino)-λ^6-sulfanone] | 79.4 nM | 79.4 nM | 126 nM
14 | Cc1nc2cc(-c3ccc(S(=O)(=O)[C@H]4CC[C@H](Nc5ccc(S(F)(F)(F)(F)F)cc5)CC4)cc3)ccn2n1 [Example 41, 4-(pentafluoro-λ^6-sulfanyl)-N-[trans-4-(4-{2-methyl-[1,2,4]triazolo[1,5-a]pyridin-7-yl}benzenesulfonyl)cyclohexyl]aniline] | 79.4 nM | 5.01 nM | 158 nM
15 | N#Cc1c[nH]c2ccc(-c3ccc(S(=N)(=O)[C@H]4CC[C@H](Nc5ccc(S(F)(F)(F)(F)F)cc5)CC4)cc3)cc12 (stereo partly drawn) [Example 85, 5-(4-{[trans-4-{[4-(pentafluoro-λ^6-sulfanyl)phenyl]Amino}cyclohexyl]sulfonimidoyl}phenyl)-1H-indole-3-carbonitrile] | 126 nM | 25.1 nM | 100 nM
16 | CN(C)C(=O)c1ccc(-c2ccc(S(=O)(=O)[C@H]3CC[C@H](Nc4ccc(S(F)(F)(F)(F)F)cc4)CC3)cc2)cn1 [Example 20, N,N-dimethyl-5-(4-{[trans-4-{[4-(pentafluoro-λ^6-sulfanyl)phenyl]Amino}cyclohexyl]sulfonyl}phenyl)pyridine-2-carboxamide] | 398 nM | 31.6 nM | 100 nM
17 | NC(=O)c1cc(-c2ccc(S(=O)(=O)N3CCC(Nc4ccc(S(F)(F)(F)(F)F)cc4)CC3)cc2)ccn1 [Example 177, 4-{4-[(4-{[4-(pentafluoro-λ^6-sulfanyl)phenyl]amino}piperidin-1-yl)sulfonyl]phenyl}pyridine-2-carboxamide] | 79.4 nM | 12.6 nM | 79.4 nM
18 | CC(C)c1nnc2ccc(-c3ccc(S(=O)(=O)[C@H]4CC[C@H](Nc5ccc(S(F)(F)(F)(F)F)cc5)CC4)cc3)cn12 [Example 35, 4-(pentafluoro-λ^6-sulfanyl)-N-[trans-4-{4-[3-(propan-2-yl)-[1,2,4]triazolo[4,3-a]pyridin-6-yl]benzenesulfonyl}cyclohexyl]aniline] | 3.98 nM | 0.501 nM | 79.4 nM
